{
  "source": "patent US6589564B2",
  "about": "“Use of magnesium based products for the treatment of neoplastic diseases” (priority 1994, dated 2003)",
  "key": {"[1]": {"system": "infiltrating ulcerated adenocarcinoma (rectum)", "experimental": "The patient refused any therapy for a month and then started a magnesium treatment consisting of a daily administration of 500 cm^3 of physiologic solution, containing 6 g of magnesium pyrophosphate (i.e., 489 mg of Mg^++ daily, that is equivalent to about 9.7 mg of Mg^++/kg body weight daily). The infusion rate was adjusted to supply the patient with 80 mg of magnesium ions per hour for about 6 hours. Furthermore, a daily amount of 1200 mg of vitamin B6 was associated (vitamin B6:Mg^++=2.5:1), in four separate administrations.\nAfter one month of intravenous treatment, the therapy was continued orally, with 6 g of magnesium pyrophosphate daily (i.e., 488 mg of Mg^++ daily, corresponding to 9.7 mg of Mg^++/kg body weight daily), associated with […] of vitamin B6 in divided doses."}, "rheumatoid arthritis": {"system": "rheumatoid arthritis", "settings": "for ESR: before therapy 55, normal range 1-15", "experimental": "The magnesium therapy, that the patient started in a disease remission interval, consisted of daily administations of 6 g of magnesium pyrophosphate (equivalent to 489 mg of Mg^++, corresponding to 8.1 mg of Mg^++/kg body weight daily), by infusion in 500 cm^3 of physiologic solution. The infusion rate was adjusted to supply 80 mg of Mg^++ per hour for about 6 hours. Vitamin B6 was associated with magnesium in the 2.5:1 ratio, i.e. in an amount of 1200 mg daily in divided doses, in order to improve the magnesium uptake. Suitable analgesic and anti-inflammatory drugs (FANS) were prescribed to soothe the articulation pains\nAt this point the parenteral treatment was suspended and an oral therapy started with following dosage: 6 g of magnesium pyrophosphate daily in divided doses (i.e., 488 mg of Mg^++ daily, corresponding to 8.1 mg of Mg^++/kg body weight daily), as well as […] of vitamin B6 orally, also in divided doses."}, "pemphigus vulgaris": {"system": "pemphigus vulgaris", "experimental": "A patient was affected since three years by a pemphigus vulgaris, that caused soft vesicles to form on the patient's face and scalp. The vesicles broke after forming, and gave rise to circular erosions, that later were covered by scabs. Then, the said lesions appeared also on the patient's trunk and oral mucosa.\nThe therapy consisted in daily administering 9 g of magnesium pyrophosphate (i.e., 733 mg of Mg^++, corresponding to 9.16 mg/kg body weight daily of magnesium ions), dissolved into 500 cm^3 of a physiologic solution. The infusion rate was adjusted to supply 80 mg of Mg^++ per hour for about 9 hours.\nMoreover, 1800 mg of vitamin B6 were administered daily, in divided doses."}, "ulcerative colitis": {"system": "ulcerative colitis", "experimental": "The treatment comprised the parenteral administration of 6 g of magnesium pyrophosphate (489 mg of Mg^++, i.e., 8.89 mg of Mg^++/kg body weight daily), diluted into 500 cm^3 of physiologic solution, and the infusion was adjusted to supply the patient with 80 mg of Mg^++ per hour for 6 hours. […] of orally administered vitamin B6 were added in divided doses, to improve the magnesium uptake."}, "[2]": {"settings": "end of fourth month, negative normally, before therapy positive"}, "[3]": {"settings": "after one further month (three months)"}},
  "note": "Like-named read-outs stand apart in the source and are kept apart here.",
  "data": [
    {"smiles": "O=P([O-])([O-])OP(=O)([O-])[O-].[Mg+2].[Mg+2]", "note": "[magnesium pyrophosphate]", "values": [
      {"measurement": "tumor area at rectoscopy and tomography", "setting": "[1]; end of fifth month of treatment", "result": "totally disappeared"},
      {"measurement": "tumor area", "setting": "[1]; end of fourth month of therapy", "result": "further reduced"},
      {"measurement": "diameter of residual tumor area", "setting": "[1]; end of third month of magnesium therapy, point at 3 o'clock", "result": 1.5, "unit": "cm"},
      {"measurement": "tumoral tissue at rectum investigation and rectoscopy", "setting": "[1]; end of third month, 6 g/day, 1 month i.v. then oral, with vitamin B6 1200 mg/day", "result": "had disappeared from the whole rectum circumference, except from a point at 3 o'clock"},
      {"measurement": "ESR", "setting": "rheumatoid arthritis; end of first month, 6 g/day by infusion with vitamin B6", "result": 42},
      {"measurement": "articulation pains and swelling", "setting": "rheumatoid arthritis; end of first month, 6 g/day by infusion with vitamin B6 and FANS", "result": "less pains at affected articulations, which appeared less swollen"},
      {"measurement": "articulation tumescence, pains, morning rigidity", "setting": "rheumatoid arthritis; end of fourth month of treatment (1 month i.v., then oral 6 g/day)", "result": "any articulation tumescence had disappeared and the patient referred neither articulation pains nor morning articulation rigidity"},
      {"measurement": "ANA antibody research", "setting": "rheumatoid arthritis; [2]", "result": "negative"},
      {"measurement": "Waaler-Rose's reaction", "setting": "rheumatoid arthritis; [2]", "result": "negative"},
      {"measurement": "reactive C protein", "setting": "rheumatoid arthritis; end of fourth month, normal range 0-6, before therapy 15", "result": 2},
      {"measurement": "rheuma test", "setting": "rheumatoid arthritis; end of fourth month, normal range 0-40, before therapy 105", "result": 21},
      {"measurement": "ESR", "setting": "rheumatoid arthritis; end of fourth month", "result": 10},
      {"measurement": "fibrinogen", "setting": "rheumatoid arthritis; end of fourth month, normal range 123-370, before therapy 550", "result": 232},
      {"measurement": "articular pains and cutaneous lesions", "setting": "pemphigus vulgaris; after one month, 9 g/day by infusion with vitamin B6", "result": "less articular pains and cutaneous lesions onto non-erythematous skin"},
      {"measurement": "scab lesions and articulation pains", "setting": "pemphigus vulgaris; end of fourth month (1 month i.v., then oral 9 g/day with vitamin B6)", "result": "the trunk and limb scab lesions had disappeared, while scarce lesions were still present on the scalp"},
      {"measurement": "articulation pains and skin lesions", "setting": "pemphigus vulgaris; end of sixth month of treatment", "result": "the articulation pains had disappeared at all, as well as any skin lesions"},
      {"measurement": "colonscopy, last 50 cm of the colon mucosa", "setting": "ulcerative colitis; [3]", "result": "appeared normal"},
      {"measurement": "histology test of colon mucosa and submucosa", "setting": "ulcerative colitis; [3]", "result": "colon mucosa and submucosa were normal and any inflammatory infiltration had disappeared"},
      {"measurement": "abdominal pains and diarrhoea", "setting": "ulcerative colitis; after one further month (three months), same dosage", "result": "no more abdominal pains nor diarrhoea"},
      {"measurement": "colonscopy, last 50 cm of the colon mucosa", "setting": "ulcerative colitis; end of two month treatment", "result": "neither hyperaemic nor bleeding; and absence of microulcerative lesions"},
      {"measurement": "diarrhoea, daily episodes", "setting": "ulcerative colitis; end of two month treatment", "result": "two"},
      {"measurement": "histology test of colon mucosa", "setting": "ulcerative colitis; end of two month treatment", "result": "still showed the presence of inflammatory neutrophil infiltration in the colon mucosa"},
      {"measurement": "abdominal pains", "setting": "ulcerative colitis; end of two month treatment, 6 g/day parenteral with oral vitamin B6", "result": "no abdominal pains"}
    ]}
  ]
}
